Experimental data taken from BigSolDB 2.1.

NC[C@H]1O[C@H](O[C@H]2[C@H](O)[C@@H](O[C@H]3O[C@H](CO)[C@@H](O)[C@H](N)[C@H]3O)[C@H](N)C[C@@H]2N)[C@H](N)C[C@@H]1O
solubility (mole fraction)
Conditions	283.15 K	288.15 K	293.15 K	294.15 K	298.15 K	303.15 K	308.15 K	313.15 K	318.15 K
in DMF	–	–	0.000144	–	0.000181	0.000249	0.000394	0.000663	0.000942
in DMSO	–	–	–	0.0124	0.014	0.018	0.0236	0.0282	0.0351
in ethanol	0.000436	0.000556	0.000708	–	0.00114	0.00191	0.00243	–	–
in methanol	–	0.000129	0.000133	–	0.000189	0.000284	0.000433	0.000635	–
